PMC11232398, “Antimalarial activity of cecropin antimicrobial peptides derived from Anopheles mosquitoes” (Antimicrobial Agents and Chemotherapy, 2024)

How the values were obtained:
[1] = Acute oral toxicity test in mice; type: in vivo, BALB/c mice; details: for survival number: n = 6, 14 days; for Body weight Day0 / Body weight Day7 / Body weight Day14: n = 6, in g (unit assumed)
Experimental: Mice were housed under standard conditions at a temperature of 24 ± 2°C and a humidity of 50%–80%. Lighting was alternated between day and night every 12 hours. All mouse groups consisted of six animals per cage, and these were fed ad libitum with SPF-grade stock diet and water. All the experimental mice were adapted to the animal room for 1 to 2 weeks before the experiment.
For the acute toxicity test, the mice were divided into four groups. Each group contained six mice. Mice were fasted for 2 hours before feeding with a single oral dose of peptide. The mice in each group were fed with peptide at a single oral dose of 500, 200, and 100 mg/kg body weight. Normal saline (1 mL) was used as control. The general behavior of each mouse was observed continuously for the first 1 hour, then intermittently every 4 hours, and thereafter over a period of 24 hours ([43]).

[2] = tested on: Plasmodium falciparum 3D7; test: Transmission electron microscope analysis of parasite morphology; type: cell-based; details: TEM
Experimental: 3D7 strain parasites with parasitemia of 3% ~ 5% at a hematocrit of 2% were planted in 12-well plates, 3 mL/well. A 40-µM concentration of An-cecB or 200 µM An-cecB-1 was added and incubated for 30 min or 60 min. PBS was used as a control.
After incubation, the parasites were washed three times with ICM, and the electron microscope fixative solution (provided by the company) was added to keep the parasites clumped for 2 hours at room temperature. Finally, the samples were sent to a commercial company at 4°C for transmission electron microscope analysis.

[3] = tested on: P. falciparum 3D7 (sensitive strain); test: In vitro antimalarial activity, 3-day inhibition assay; type: cell-based, Plasmodium falciparum; details: Giemsa smears
Experimental: (§1) Blood stages of the laboratory clones P. falciparum 3D7 (sensitive strain), P. falciparum 803 (artemisinin-resistant strain), and P. falciparum Dd2 (chloroquine-resistant strain) were cultured in vitro according to the method of Trager and Jensens with minor modifications ([37]). Briefly, cultures were maintained in O-positive human erythrocytes (RBCs) as host cells at 2% hematocrit and maintained in complete medium (CM) [RPMI-1640 culture medium supplemented with NaHCO3 (2 mg/mL), hypoxanthine (50 µg/mL), HEPES (5.96 mg/mL), albumax II (1%), and gentamicin (40 µg/mL)]. The cultures were diluted to 1% parasitemia and 2% hematocrit in CM and incubated in a humidified atmosphere with 5% O2, 5% CO2, and 90% N2 at 37°C. Prior to experiments, the cultures were highly synchronized for ring stages using 5% sorbitol twice at a 40-h interval. Briefly, ring stage cultures were centrifuged and the pellet was washed once in incomplete medium (ICM, RPMI-1640 without addition). Then, the pellet was resuspended in 5% sorbitol and incubated at 37°C for 10 min. After incubation, the suspension was centrifuged and the pellet was washed once and resuspended in medium. The development of the parasite was observed using light microscopy, and parasitemia was determined by counting at least 10,000 RBCs on Giemsa’s solution-stained thin blood smears.
Highly synchronous ring stage parasites were used to investigate the in vitro antimalarial activity of the peptides. For preliminary screening of in vitro antimalarial activity, a 3-day inhibition assay was used to test the antimalarial activity of An-cecA, An-cecB, and An-cecC. […] For IC50 assay, a series of concentrations of peptides were added to the parasite culture. The concentrations of An-cecB were 5, 15, 20, 25, 30, 35, and 40 µM, while those of An-cecB-1 were 20, 30, 40, 50, 60, 70, 80, and 90 µM. After 72 hours of incubation, the antimalarial effects of peptides were estimated. Thin blood films stained with Giemsa’s solution were counted under a microscope. The parasitemia of cultures treated with peptides was compared with that of control. IC50 was calculated by GraphPad Prism.

[4] = tested on: P. falciparum Dd2 (chloroquine-resistant strain); test: In vitro antimalarial IC50 assay; type: cell-based, Plasmodium falciparum; details: strain Dd2, 72 h incubation, Giemsa smears
Experimental: as §1, with “Then, the pellet was resuspended in 5% sorbitol and incubated at 37°C for 10 min. After incubation, the suspension was centrifuged and the pellet was washed once and resuspended in medium.” left out
(§2) Highly synchronous ring stage parasites were used to investigate the in vitro antimalarial activity of the peptides. […] Thin blood films stained with Giemsa’s solution were counted under a microscope. […] IC50 was calculated by GraphPad Prism.

[5] = tested on: P. falciparum 803 (artemisinin-resistant strain); test: In vitro antimalarial IC50 assay; type: cell-based, Plasmodium falciparum; details: strain 803, 72 h incubation, Giemsa smears
Experimental: as §1, with “Then, the pellet was resuspended in 5% sorbitol and incubated at 37°C for 10 min. After incubation, the suspension was centrifuged and the pellet was washed once and resuspended in medium.” left out
as §2

[6] = tested on: RBCs infected by schizonts of P. falciparum 3D7; test: Hemolytic activity on RBCs infected by schizonts; type: cell-based, human; details: percoll-purified 3D7 schizonts, 2% hematocrit in PBS
Experimental: To test the hemolytic activity of the peptides against RBCs infected by Plasmodium, schizonts of the P. falciparum 3D7 strain were collected. The parasite culture of mainly schizonts was centrifuged and resuspended to 50% hematocrit. Then, the resuspended culture was carefully laid on top of the gradient with 3 mL 70% and 3 mL 40% percoll-sorbitol solution. After centrifugation at 2,300 × g for 20 min at 20°C, schizonts from the 40/70% interface were collected and washed twice with 10× volume of ICM. The collected parasites were resuspended in PBS to 2% hematocrit for hemolysis assay as described above.

[7] = 40 µM An-cecB or 200 µM An-cecB-1, total 20 / 22

Experimental for HEK293T cells: The mammalian cell lines HepG2 and HEK293T were used for cytotoxicity tests. The cells were cultured in Dulbecco’s modified Eagle medium supplemented with 10% fetal bovine serum and 1% penicillin/streptomycin in an incubator at 37°C with 5% CO2. Cells were seeded at a density of 1 × 10^5 cells/mL per well into a 96-well plate overnight and treated with different concentrations of peptides for 48 hours. To analyze the CC50 of peptides, a series of concentrations of peptides (0, 5, 10, 20, 30, 40, 50, 60, and 70 µM) were set to detect their cytotoxic concentrations. Then, 10% CCK-8 solution was added into each well and incubated for another 2 hours. The absorbance was monitored by a microplate reader at 450 nm. PBS was used as a negative control and the inhibition of each drug was normalized to that of the PBS control. CC50 was calculated by GraphPad Prism. Two independent assays with three technical replicates each time were conducted.

Question: For “APRWKFGKRLEKLGRNVFRAA KKALPVIAGYKAL-NH2 [An-cecB]”, which survival number ([1]; single oral dose 100 mg/kg) is on record?
Answer: The survival number was 6.

Question: What about the “Body weight Day0” value ([1]; single oral dose 100 mg/kg) of the same sequence?
Answer: Its value is 20.45±1.56.

Question: And the “Body weight Day7” value ([1]; single oral dose 100 mg/kg)?
Answer: The value was 20.9±1.62.

Question: And the “Body weight Day14” value ([1]; single oral dose 100 mg/kg)?
Answer: Its value is 21.98±0.91.

Question: And the survival number ([1]; single oral dose 200 mg/kg)?
Answer: Its survival number is 6.

Question: What about the “Body weight Day14” value ([1]; single oral dose 200 mg/kg, P < 0.01 vs control) of the same sequence?
Answer: Its value is 18.4±2.1.

Question: What about the “Body weight Day0” value ([1]; single oral dose 200 mg/kg) of the same sequence?
Answer: Its value is 20.45±1.56.

Question: What about the “Body weight Day7” value ([1]; single oral dose 200 mg/kg) of the same sequence?
Answer: Its value is 19.25±1.8.

Question: What about the survival number ([1]; single oral dose 500 mg/kg, one mouse died on Day8) of the same sequence?
Answer: Its survival number is 5.

Question: What about the “Body weight Day14” value ([1]; single oral dose 500 mg/kg, P < 0.01 vs control) of the same sequence?
Answer: Its value is 16.54±3.24.

Question: What about the “Body weight Day0” value ([1]; single oral dose 500 mg/kg) of the same sequence?
Answer: Its value is 19.55±2.01.

Question: What about the “Normal (number of parasites)” value ([2]; 40 µM An-cecB or 200 µM An-cecB-1, 30 or 60 min, total 20 (An-cecB), 22 (An-cecB-1)) of the same sequence?
Answer: Its value is 7.

Question: And the “Disintegration (number of parasites)” value [2, 7]?
Answer: The value was 3.

Question: And the “Parasite disoriented (number of parasites)” value [2, 7]?
Answer: Its value is 4.

Question: What about the “Parasite membrane dissolution (number of parasites)” value [2, 7] of the same sequence?
Answer: Its value is 7.

Question: What about the “Parasite shrunken (number of parasites)” value [2, 7] of the same sequence?
Answer: Its value is 9.

Question: And the “Vacuole formation (number of parasites)” value [2, 7]?
Answer: The value was 3.

Question: What about the inhibition rate ([3]; 50 µM peptide, 72 h, ring stage, 1% parasitemia, 2% hematocrit) of the same sequence?
Answer: The inhibition rate was 100%.

Question: What about the IC50 ([3]; 3D7, 72 h incubation, GraphPad Prism, two independent assays, three technical replicates) of the same sequence?
Answer: Its IC50 is 12.4 µM.

Question: And the IC50 [4]?
Answer: The IC50 was 12.8 µM.

Question: What about the IC50 [5] of the same sequence?
Answer: Its IC50 is 9.89 µM.

Question: What about the CC50 (HEK293T cells) of the same sequence?
Answer: Its CC50 is 57.33 µM.

Question: And the “cytotoxicity to HEK293T cells” value (HEK293T cells)?
Answer: The value was “dose-dependently inhibited the cell viability”.

Question: And the “hemolytic activity to infected erythrocytes” value [6]?
Answer: The value was “specifically lysed infected erythrocytes”.
